Our source for the mutagenic call values is PubChem BioAssay AID1259407 (Chemical Carcinogenesis Research Information System (CCRIS), 2018).

For this series, the system named is CCRIS mutagenicity, Ames/micronucleus/aberration tests. Description: CCRIS mutagenicity studies.
[1] abbreviates: Test System: AMES SALMONELLA TYPHIMURIUM, Strain/Indicator: TA98, Metabolic Activation: NONE, Method: PREINCUBATION
[2] abbreviates: Test System: AMES SALMONELLA TYPHIMURIUM, Strain/Indicator: TA98, Metabolic Activation: NONE, Method: STANDARD PLATE.
Where [3] appears, read: Test System: AMES SALMONELLA TYPHIMURIUM, Strain/Indicator: TA98, Metabolic Activation: RAT, LIVER, S-9, AROCLOR 1254, Method: STANDARD PLATE.
[4] abbreviates: Test System: AMES SALMONELLA TYPHIMURIUM, Strain/Indicator: TA100, Metabolic Activation: NONE, Method: PREINCUBATION
Where [5] appears, read: Test System: AMES SALMONELLA TYPHIMURIUM, Strain/Indicator: TA100, Metabolic Activation: NONE, Method: STANDARD PLATE.
Setting [6] is: Test System: AMES SALMONELLA TYPHIMURIUM, Strain/Indicator: TA100, Metabolic Activation: RAT, LIVER, S-9, AROCLOR 1254, Method: STANDARD PLATE.
Where [7] appears, read: Test System: AMES SALMONELLA TYPHIMURIUM, Strain/Indicator: TA1535, Metabolic Activation: NONE, Method: STANDARD PLATE.
The mark [8] stands for this setting: Test System: AMES SALMONELLA TYPHIMURIUM, Strain/Indicator: TA1535, Metabolic Activation: RAT, LIVER, S-9, AROCLOR 1254, Method: STANDARD PLATE.
Where [9] appears, read: Test System: AMES SALMONELLA TYPHIMURIUM, Strain/Indicator: TA1537, Metabolic Activation: NONE, Method: STANDARD PLATE.
The mark [10] stands for this setting: Test System: AMES SALMONELLA TYPHIMURIUM, Strain/Indicator: TA1537, Metabolic Activation: RAT, LIVER, S-9, AROCLOR 1254, Method: STANDARD PLATE.
The mark [11] stands for this setting: Test System: MOUSE LYMPHOMA, Strain/Indicator: L5178Y (TK+/TK-), Metabolic Activation: NONE, Method: SUSPENSION/PLATE.
Setting [12] is: Test System: MOUSE LYMPHOMA, Strain/Indicator: L5178Y (TK+/TK-), Metabolic Activation: RAT, LIVER, S-9, AROCLOR 1254, Method: SUSPENSION/PLATE.

Molecules are shown by their SMILES. The source made the active and inactive calls. How the calls were made is not given here.

For the molecule `c1ccc(-c2ccccc2)cc1`, the mutagenic call was “inactive; negative” (Test System: AMES SALMONELLA TYPHIMURIUM, Strain/Indicator: TA97, Metabolic Activation: NONE, Method: STANDARD PLATE); “inactive; negative” (Test System: AMES SALMONELLA TYPHIMURIUM, Strain/Indicator: TA97, Metabolic Activation: RAT, LIVER, S-9, AROCLOR 1254, Method: STANDARD PLATE); “inactive; negative” under setting [1]; “inactive; negative” under setting [2]; “inactive; negative” (Test System: AMES SALMONELLA TYPHIMURIUM, Strain/Indicator: TA98, Metabolic Activation: RAT LIVER S-9, PHENOBARBITAL AND BETA-NAPHTHOFLAVONE, Method: PREINCUBATION); “inactive; negative” under setting [3]. In addition, the mutagenic call was “inactive; negative” under setting [4]; “inactive; negative” under setting [5]; “inactive; negative” (Test System: AMES SALMONELLA TYPHIMURIUM, Strain/Indicator: TA100, Metabolic Activation: RAT LIVER S-9, PHENOBARBITAL AND BETA-NAPHTHOFLAVONE, Method: PREINCUBATION); “inactive; negative” under setting [6]; “inactive; negative” (Test System: AMES SALMONELLA TYPHIMURIUM, Strain/Indicator: TA1535, Metabolic Activation: NONE, Method: PREINCUBATION); “inactive; negative” under setting [7]. For the same molecule, the mutagenic call by setting is: (Test System: AMES SALMONELLA TYPHIMURIUM, Strain/Indicator: TA1535, Metabolic Activation: RAT LIVER S-9, PHENOBARBITAL AND BETA-NAPHTHOFLAVONE, Method: PREINCUBATION) “inactive; negative”; under setting [8], “inactive; negative”; (Test System: AMES SALMONELLA TYPHIMURIUM, Strain/Indicator: TA1537, Metabolic Activation: NONE, Method: PREINCUBATION) “inactive; negative”; under setting [9], “inactive; negative”; (Test System: AMES SALMONELLA TYPHIMURIUM, Strain/Indicator: TA1537, Metabolic Activation: RAT LIVER S-9, PHENOBARBITAL AND BETA-NAPHTHOFLAVONE, Method: PREINCUBATION) “inactive; negative”; under setting [10], “inactive; negative”. Also, the mutagenic call was “inactive; negative” (Test System: E. COLI, Strain/Indicator: WP2, Metabolic Activation: NONE, Method: STANDARD PLATE); “inactive; negative” (Test System: E. COLI, Strain/Indicator: WP2, Metabolic Activation: RAT, LIVER, S-9, AROCLOR 1254, Method: STANDARD PLATE); “inactive; negative” (Test System: E.COLI, Strain/Indicator: WP2UVRA, Metabolic Activation: NONE, Method: PREINCUBATION); “inactive; negative” (Test System: E.COLI, Strain/Indicator: WP2UVRA, Metabolic Activation: RAT LIVER S-9, PHENOBARBITAL AND BETA-NAPHTHOFLAVONE, Method: PREINCUBATION); “active; positive” under setting [11]; “active; positive” under setting [12].
`Cc1ccccc1NS(=O)(=O)c1cccc2cccnc12`: the mutagenic call is, setting by setting: under setting [2], “inactive; negative”; under setting [3], “inactive; negative”; under setting [5], “inactive; negative”; under setting [6], “inactive; negative”; under setting [7], “inactive; negative”; under setting [8], “inactive; negative”. In addition, the mutagenic call is “inactive; negative” under setting [9] and “inactive; negative” under setting [10].
In the case of `O=C(CCl)c1ccc(Cl)cc1Cl`, the mutagenic call was “inactive; negative” (Test System: AMES SALMONELLA TYPHIMURIUM, Strain/Indicator: TA98, Metabolic Activation: HAMSTER, LIVER, S-9, AROCLOR 1254, Method: STANDARD PLATE); “inactive; negative” under setting [2]; “inactive; negative” under setting [3]; “inactive; negative” (Test System: AMES SALMONELLA TYPHIMURIUM, Strain/Indicator: TA100, Metabolic Activation: HAMSTER, LIVER, S-9, AROCLOR 1254, Method: STANDARD PLATE); “inactive; negative” under setting [5]; “inactive; negative” under setting [6]. The mutagenic call (Test System: AMES SALMONELLA TYPHIMURIUM, Strain/Indicator: TA1535, Metabolic Activation: HAMSTER, LIVER, S-9, AROCLOR 1254, Method: STANDARD PLATE) is “inactive; negative”; the mutagenic call under setting [7] was “inactive; negative”; the mutagenic call under setting [8] was “inactive; negative”; the mutagenic call (Test System: AMES SALMONELLA TYPHIMURIUM, Strain/Indicator: TA1537, Metabolic Activation: HAMSTER, LIVER, S-9, AROCLOR 1254, Method: STANDARD PLATE) was “inactive; negative”; the mutagenic call under setting [9] is “inactive; negative”; the mutagenic call under setting [10] was “inactive; negative”. Besides, the mutagenic call is, setting by setting: under setting [11], “inactive; negative. reevaluation of results: negative”; under setting [12], “inactive; negative. reevaluation of results: negative”.
Take `O=C(O)c1cccc2cccnc12`: the mutagenic call runs as follows: under setting [2], “inactive; negative”; under setting [3], “inactive; negative”; under setting [5], “inactive; negative”; under setting [6], “inactive; negative”; under setting [7], “inactive; negative”; under setting [8], “inactive; negative”. Besides, the mutagenic call runs as follows: under setting [9], “inactive; negative”; under setting [10], “inactive; negative”.
Regarding `Nc1ccc(Cc2cc(O)c(N)c(Cl)c2)cc1Cl`, the mutagenic call is, setting by setting: under setting [1], “inactive; negative”; under setting [4], “inactive; negative”.
